Experimental data taken from article PMC8165439, “Chymase Dependent Pathway of Angiotensin II Generation and Rapeseed Derived Peptides for Antihypertensive Treatment of Spontaneously Hypertensive Rats” (Frontiers in Pharmacology, 2021).
Entries after “also recorded” stand apart in the source; their conditions may differ.

Assays:
[1] = test system: spontaneously hypertensive rats (SHR); test: Chronic iv treatment, systolic blood pressure by telemetry; format: in vivo, rat
From the text: Implantation of the telemetry transmitters for BP measurement: Seven days before the start of the chronic experiment all rats were implanted with telemetry probes for blood pressure monitoring (Data Science International, St. Paul, MN, United States). The transmitters (TA11PA-C10 dedicated for young animals or TA11PA-C40 for adult rats, Data Science International, St. Paul, MN, United States), were implanted under aseptic conditions, under sodium pentobarbital anesthesia (Sodium Pentobarbital, dose: 50 mg/kg ip, Biowet, Pulawy, Poland). The transmitter’s cannula was implanted into the aorta and transmitter’s body was placed inside the peritoneal cavity and fixed to the abdominal muscle wall. Metacam (0.4 mg/kg BW, Boehringer, Ingelheim, Germany) and Baytril (10 mg/kg BW, Bayer, Leverkusen, Germany) were used as post-operative analgesia and to prevent infection, respectively.
Implantation of cannulas for intravenous administration of selected substances: Four days before the start of the chronic experiment, the femoral vein was cannulated for chronic administration of the substances (Micro-Renathane MRE033, BIOSEB-In Vivo Research Instruments, United States/Canada), and the femoral artery was cannulated for blood sampling (Micro-Renathane Tubing MRE-025 and MRE033, BIOSEB-In Vivo Research Instruments, United States/Canada, respectively in young and adult rats). Both cannulas were filled with 4% Citra-Lock solution (Dirinco B.V, Ketelmeer 1, 5347 JX Oss, Netherlands) to prevent blood clotting and inflammation. After the surgery the post-operative treatment was applied as that for telemetric probe implantation.
Systolic and diastolic blood pressure (SBP and DBP, respectively) and heart rate (HR) were measured in conscious unrestrained rats by telemetry technique, once a week for 24 h. […] The diuresis, weight of feces, food and water intake were measured; urine and blood samples were collected on day 0, 7th and 14th, and were centrifuged at 1200 g (blood for 15 min and urine for 5 min), then the samples were stored at –80°C until analysis. […]

ACE = conditions: ref Petrie et al., 2001; cited from earlier work
[2] = test system: spontaneously hypertensive rats (SHR); test: Left ventricular hypertrophy (LV/tibia) after chronic treatment; format: in vivo, rat; conditions: after 14 days daily iv CH 2, RIY 7.5, VWIS 12.5 mg/kg/day, mean ± SEM, n = 5
Method: (§1) After the chronic experiment rats were anesthetized with sodium thiopental (100 mg/kg, ip, Sandoz GmbH, Kundl, Austria) and the heart, kidney and tibia were harvested for morphologic analysis. Additionally, left ventricular hypertrophy was assessed: the hearts were immediately harvested, dried with filter paper, and weighed. Then the left ventricle (LV) was carefully excised and weighed again. Left ventricular hypertrophy was assessed based on the ratio of LV mass to tibia length (LV/tibia).

[3] = test system: spontaneously hypertensive rats (SHR); test: Glomerulosclerosis index (GSI) after chronic treatment; format: in vivo, rat; conditions: after 14 days daily iv CH 2, RIY 7.5, VWIS 12.5 mg/kg/day, mean ± SEM, n = 5
Method: as §1
The kidneys were fixed in 4% buffered formalin, embedded in paraffin and stained with hematoxylin/eosin for morphology evaluation. Glomerulosclerosis/hyalinosis index (GSI) was defined as segmental solidification of the glomerular capillary tuft, segmental collapse, obliteration of capillary lumen and accumulation of hyaline. Fifty glomeruli per section were randomly selected and evaluated using semi-quantitative scoring method as described in detail previously ([Maric et al., 2004]; [Gawrys et al., 2018]). Blind group allocation of the investigators was used.

[4] = test system: spontaneously hypertensive rats (SHR); test: Plasma and urine parameters during chronic treatment; format: in vivo, rat; conditions: mean ± SEM
Method: Systolic and diastolic blood pressure (SBP and DBP, respectively) and heart rate (HR) were measured in conscious unrestrained rats by telemetry technique, once a week for 24 h. 24 hour observations in metabolic cages (Tecniplast S. p.A. Buguggiate, Italy) were performed weekly. The diuresis, weight of feces, food and water intake were measured; urine and blood samples were collected on day 0, 7th and 14th, and were centrifuged at 1200 g (blood for 15 min and urine for 5 min), then the samples were stored at –80°C until analysis.
On day 0 all animals received saline (0.9% NaCl) and then, for 14 consecutive days, the substance tested. Chymostatin (CH, 2 mg/kg/day) was dissolved in DMSO and then diluted with PBS (final concentration of DMSO was 0.15%). Peptides RIY (7.5 mg/kg/day) and VWIS (12.5 mg/kg/day) were dissolved in saline (0.9% NaCl, S). The substances were administered through the femoral vein during 10 min in the volume of 0.5 ml to young SHR (infusion rate: 3 ml/h) and 1 ml to adult rats (infusion rate: 6 ml/h). Control rats received solvents (either DMSO or saline) in the same volume.
Urine volume was determined by gravimetric method. Sodium and potassium concentration in urine and plasma were measured by flame photometry (PFP7/C, Jenway Ltd, Stone, United Kingdom). Urine and plasma osmolality were measured by freezing point depression (Osmomat® 030 M, Gonotec, Berlin, Germany). These parameters were used to determine the excretion rates of total solutes (UosmV), sodium (UNaV) and potassium (UKV). Commercially available ELISA kits were used to measure nitric oxide metabolites (NOx, SunRed, Shanghai) and albumin (Albumin, ICL, Portland) concentration in urine. Excretion rate of NOx (UNOxV) and albumin (UAE) were calculated.

[5] = adult SHR (SHR-16), day 0 (baseline)
[6] = adult SHR (SHR-16), day 7 of daily iv treatment
[7] = adult SHR (SHR-16), day 14 of daily iv treatment
[8] = young SHR (SHR-6), day 0 (baseline)
[9] = young SHR (SHR-6), day 7 of daily iv treatment
[10] = young SHR (SHR-6), day 14 of daily iv treatment

Question: For `CC(C)C[C@H](NC(=O)[C@@H](NC(=O)N[C@@H](Cc1ccccc1)C(=O)O)[C@@H]1CCN=C(N)N1)C(=O)N[C@H](C=O)Cc1ccccc1` [CH, chymostatin], which “effect on systolic blood pressure (SBP) in adult SHR” value ([1]; adult SHR (16 weeks old), daily iv for 14 days, CH 2, RIY 7.5, VWIS 12.5 mg/kg/day) is on record?
Answer: Its value is “no sustained decrease in arterial blood pressure; also recorded: significant increase in SBP”.

Question: And the “period of transient BP reduction post-infusion” value ([1]; adult SHR, chronic intravenous infusion of chymostatin 2 mg/kg/day)?
Answer: The value was no more than 7 h.

Question: What about the “effect on blood pressure (SBP) in young animals” value ([1]; young SHR (6 weeks old), daily iv for 14 days, CH 2, RIY 7.5, VWIS 12.5 mg/kg/day) of the same molecule?
Answer: Its value is “Neither of the inhibitors applied (chymostatin and the both rapeseed-derived peptides) affected blood pressure”.

Question: And the “block of ACE by chymostatin” value (ACE)?
Answer: The value was “does not block ACE”.

Question: What about the “left ventricular hypertrophy (LV/tibia)” value ([2]; adult SHR) of the same molecule?
Answer: Its value is 20.7 ± 2.6 mg/mm.

Question: And the “left ventricular hypertrophy (LV/tibia)” value ([2]; young SHR)?
Answer: The value was 16.7 ± 0.9 mg/mm.

Question: What about the “glomerulosclerosis index (GSI)” value ([3]; adult SHR) of the same molecule?
Answer: Its value is 0.50 ± 0.07.

Question: And the “glomerulosclerosis index (GSI)” value ([3]; young SHR)?
Answer: The value was 0.51 ± 0.07.

Question: And the Plasma osmolality ([4]; adult SHR (SHR-16), day 0 (baseline), CH n=5-8, RIY n=5-6, VWIS n=5-6)?
Answer: The Plasma osmolality was 307±2 mOsm/l.

Question: And the “Plasma K+ concentration” value [4, 5]?
Answer: The value was 4.39 ± 0.27 mmol/L.

Question: What about the “Plasma Na+ concentration” value [4, 5] of the same molecule?
Answer: The value was 134.6 ± 2.6 mmol/L.

Question: And the Potassium excretion [4, 5]?
Answer: The Potassium excretion was 1.28 ± 0.19 µmol/min.

Question: And the Sodium excretion [4, 5]?
Answer: Its Sodium excretion is 1.01 ± 0.13 µmol/min.

Question: What about the Total solute excretion [4, 5] of the same molecule?
Answer: The Total solute excretion was 7.05±0.90 µOsm/min.

Question: What about the Plasma osmolality ([4]; adult SHR (SHR-16), day 7 of daily iv CH 2, RIY 7.5, VWIS 12.5 mg/kg/day) of the same molecule?
Answer: Its Plasma osmolality is 299±2 mOsm/l.

Question: What about the “Plasma K+ concentration” value [4, 6] of the same molecule?
Answer: The value was 4.21 ± 0.10 mmol/L.

Question: And the “Plasma Na+ concentration” value [4, 6]?
Answer: The value was 130.5 ± 2.3 mmol/L.

Question: What about the Potassium excretion [4, 6] of the same molecule?
Answer: The Potassium excretion was 1.24 ± 0.25 µmol/min.

Question: And the Sodium excretion [4, 6]?
Answer: The Sodium excretion was 0.77 ± 0.23 µmol/min.

Question: What about the Total solute excretion [4, 6] of the same molecule?
Answer: Its Total solute excretion is 7.11±1.34 µOsm/min.

Question: And the Plasma osmolality ([4]; adult SHR (SHR-16), day 14 of daily iv CH 2, RIY 7.5, VWIS 12.5 mg/kg/day)?
Answer: The Plasma osmolality was 294±5 mOsm/l.

Question: And the “Plasma K+ concentration” value [4, 7]?
Answer: Its value is 3.95 ± 0.20 mmol/L.

Question: And the “Plasma Na+ concentration” value [4, 7]?
Answer: Its value is 126.1 ± 1.0 mmol/L.

Question: And the Potassium excretion [4, 7]?
Answer: The Potassium excretion was 1.71 ± 0.15 µmol/min.

Question: What about the Sodium excretion [4, 7] of the same molecule?
Answer: Its Sodium excretion is 1.11 ± 0.33 µmol/min.

Question: And the Total solute excretion [4, 7]?
Answer: Its Total solute excretion is 7.04±1.15 µOsm/min.

Question: And the Plasma osmolality ([4]; young SHR (SHR-6), day 0 (baseline), CH n=8-10, RIY n=5, VWIS n=5-6)?
Answer: The Plasma osmolality was 303±3 mOsm/l.

Question: What about the “Plasma K+ concentration” value [4, 8] of the same molecule?
Answer: The value was 4.34 ± 0.16 mmol/L.

Question: What about the “Plasma Na+ concentration” value [4, 8] of the same molecule?
Answer: The value was 125.8 ± 2.1 mmol/L.

Question: What about the Potassium excretion [4, 8] of the same molecule?
Answer: The Potassium excretion was 0.48 ± 0.08 µmol/min.

Question: And the Sodium excretion [4, 8]?
Answer: Its Sodium excretion is 0.51 ± 0.09 µmol/min.

Question: And the Total solute excretion [4, 8]?
Answer: The Total solute excretion was 2.94±0.68 µOsm/min.

Question: And the Plasma osmolality ([4]; young SHR (SHR-6), day 7 of daily iv CH 2, RIY 7.5, VWIS 12.5 mg/kg/day)?
Answer: Its Plasma osmolality is 297±3 mOsm/l.

Question: What about the “Plasma K+ concentration” value [4, 9] of the same molecule?
Answer: Its value is 4.61 ± 0.12 mmol/L.

Question: What about the “Plasma Na+ concentration” value [4, 9] of the same molecule?
Answer: Its value is 126.0 ± 2.3 mmol/L.

Question: And the Potassium excretion [4, 9]?
Answer: Its Potassium excretion is 0.95 ± 0.12 µmol/min.

Question: And the Sodium excretion [4, 9]?
Answer: Its Sodium excretion is 0.90 ± 0.12 µmol/min.

Question: What about the Total solute excretion [4, 9] of the same molecule?
Answer: Its Total solute excretion is 6.05±1.16 µOsm/min.

Question: What about the Plasma osmolality ([4]; young SHR (SHR-6), day 14 of daily iv CH 2, RIY 7.5, VWIS 12.5 mg/kg/day) of the same molecule?
Answer: Its Plasma osmolality is 295±6 mOsm/l.

Question: What about the “Plasma K+ concentration” value [4, 10] of the same molecule?
Answer: The value was 3.98 ± 0.13 mmol/L.

Question: And the “Plasma Na+ concentration” value [4, 10]?
Answer: Its value is 126.0 ± 1.6 mmol/L.

Question: And the Potassium excretion [4, 10]?
Answer: The Potassium excretion was 1.01 ± 0.60 µmol/min.

Question: What about the Sodium excretion [4, 10] of the same molecule?
Answer: Its Sodium excretion is 0.93 ± 0.47 µmol/min.

Question: And the Total solute excretion [4, 10]?
Answer: The Total solute excretion was 7.82±0.47 µOsm/min.
